Measured values published in patent US7262185B2, “Benzazepine derivative, process for producing the same, and use” (Takeda Chemical Industries Ltd., priority 2001, dated 2007).

SMILES	melting point
CCCCOCCOc1ccc(-c2ccc3c(c2)C=C(C(=O)Nc2ccc(C(O)c4ccc(C)cn4)cc2)CCN3C(=O)C(F)(F)F)cc1 (stereo not shown) [Compound 103, 7-[4-(2-butoxyethoxy)phenyl]-N-[4-[hydroxy(5-methylpyridin-2-yl)methyl]phenyl]-1-trifluoroacetyl-2,3-dihydro-1H-1-benzazepine-4-carboxamide]	110 to 113 °C
CCCCOCCOc1ccc(-c2ccc3c(c2)C=C(C(=O)Nc2ccc([C@H](O)c4cccc[n+]4[O-])cc2)CCN3Cc2cc(C)ns2)cc1 [Compound 92, 7-[4-(2-butoxyethoxy)phenyl]-1-(3-methyl-isothiazol-5-ylmethyl)-N-[4-[(S)-hydroxy(1-oxidopyridin-2-yl)methyl]phenyl]-2,3-dihydro-1H-1-benzazepine-4-carboxamide]	93 to 96 °C
CCCCOCCOc1ccc(-c2ccc3c(c2)C=C(C(=O)Nc2ccc(C(O)c4cc(C)cc[n+]4[O-])c(C(F)(F)F)c2)CCN3CCC)cc1 (stereo not shown) [Compound 17, 7-[4-(2-butoxyethoxy)phenyl]-N-[4-[hydroxy(4-methyl-1-oxidopyridin-2-yl)methyl]-3-trifluoromethylphenyl]-1-propyl-2,3-dihydro-1H-1-benzazepine-4-carboxamide]	103 to 105 °C
CCCCOCCOc1ccc(-c2ccc3c(c2)C=C(C(=O)Nc2ccc(C(O)c4ccc(Cl)c[n+]4[O-])cc2)CCN3CC(C)C)cc1 (stereo not shown) [Compound 110, 7-[4-(2-butoxyethoxy)phenyl]-N-[4-[hydroxy(5-chloro-1-oxidopyridin-2-yl)methyl]phenyl]-1-isobutyl-2,3-dihydro-1H-1-benzazepine-4-carboxamide]	137 to 139 °C
CCCCOCCOc1ccc(-c2ccc3c(c2)C=C(C(=O)Nc2ccc([S+]([O-])Cc4nncn4CC(C)C)cc2)CCN3CCC)cc1 (stereo not shown) [Compound 33, 7-[4-(2-butoxyethoxy)phenyl]-N-[4-((4-isobutyl-4H-1,2,4-triazol-3-yl)methylsulfinyl]phenyl]-1-propyl-2,3-dihydro-1H-1-benzazepine-4-carboxamide]	186 to 190 °C (dec.)
CCCCOCCOc1ccc(-c2ccc3c(c2)C=C(C(=O)Nc2ccc(SCc4nncn4CCC)c(C(F)(F)F)c2)CCN3CC(C)C)cc1 [Compound 42, 7-[4-(2-butoxyethoxy)phenyl]-1-isobutyl-N-[3-trifluoromethyl-4-[(4-propyl-4H-1,2,4-triazol-3-yl)methylthio]phenyl]-2,3-dihydro-1H-1-benzazepine-4-carboxamide]	131 to 133 °C
CCCCOCCOc1ccc(-c2ccc3c(c2)C=C(C(=O)Nc2ccc(SCc4n[nH]c(=O)n4CCC)cc2)CCN3CC(C)C)cc1 [Compound 65, 7-[4-(2-butoxyethoxy)phenyl]-1-isobutyl-N-[4-[(4-propyl-1H-1,2,4-triazol-5-on-3-yl)methylthio]phenyl]-2,3-dihydro-1H-1-benzazepine-4-carboxamide]	98 to 101 °C
CCCCOCCOc1ccc(-c2ccc3c(c2)C=C(C(=O)Nc2ccc(C(O)c4cc(C)cc[n+]4[O-])c(OCC)c2)CCN3)cc1 (stereo not shown) [Compound 11, 7-[4-(2-butoxyethoxy)phenyl]-N-[3-ethoxy-4-[hydroxy(4-methyl-1-oxidopyridin-2-yl)methyl]phenyl]-2,3-dihydro-1H-1-benzazepine-4-carboxamide]	110 to 115 °C
CCCCOCCOc1ccc(-c2ccc3c(c2)C=C(C(=O)Nc2ccc([C@@H](O)c4cccc[n+]4[O-])cc2)CCN3C=O)cc1 [Compound 78, 7-[4-(2-butoxyethoxy)phenyl]-1-formyl-N-[4-[(R)-hydroxy(1-oxidopyridin-2-yl)methyl]phenyl]-2,3-dihydro-1H-1-benzazepine-4-carboxamide]	104 to 106 °C
CCCCOCCOc1ccc(-c2ccc3c(c2)C=C(C(=O)Nc2ccc([S+]([O-])Cc4nnc(C)c(C)n4)cc2)CCN3CC(C)C)cc1 (stereo not shown) [Compound 37, 7-[4-(2-butoxyethoxy)phenyl]-N-[4-[(5,6-dimethyl-1,2,4-triazin-3-yl)methylsulfinyl]phenyl]-1-isobutyl-2,3-dihydro-1H-1-benzazepine-4-carboxamide]	178 to 183 °C (dec.)
CCCCOCCOc1ccc(-c2ccc3c(c2)C=C(C(=O)Nc2ccc(C(O)c4cccc[n+]4[O-])c(C)c2)CCN3)cc1 (stereo not shown) [Compound 7, 7-[4-(2-butoxyethoxy)phenyl]-N-[4-[hydroxy(1-oxidopyridin-2-yl)methyl]-3-methylphenyl]-2,3-dihydro-1H-1-benzazepine-4-carboxamide]	179 to 182 °C (dec.)
CCCCOCCOc1ccc(-c2ccc3c(c2)C=C(C(=O)Nc2ccc4c(c2)nc([S+]([O-])Cc2cncn2CCC)n4C)CCN3CC(C)C)cc1 (stereo not shown) [Compound 445, 7-[4-(2-butoxyethoxy)phenyl]-1-isobutyl-N-[1-methyl-2-(((1-propylimidazol-5-yl)methyl)sulfinyl)benzimidazol-5-yl]-2,3-dihydro-1H-1-benzazepine-4-carboxamide]	149.5 to 151 °C
CCCCOCCOc1ccc(-c2ccc3c(c2)C=C(C(=O)Nc2ccc(C(O)c4cccc[n+]4[O-])c(OCC(F)(F)F)c2)CCN3CC(C)C)cc1 (stereo not shown) [Compound 23, 7-[4-(2-butoxyethoxy)phenyl]-1-isobutyl-N-[4-[hydroxy(1-oxidopyridin-2-yl)methyl]-3-(2,2,2-trifluoroethoxy)phenyl]-2,3-dihydro-1H-1-benzazepine-4-carboxamide]	118 to 123 °C
CCCCOCCOc1ccc(-c2ccc3c(c2)C=C(C(=O)Nc2ccc(C(O)c4cccc(C)[n+]4[O-])cc2)CCN3CC(C)C)cc1 (stereo not shown) [Compound 98, 7-[4-(2-butoxyethoxy)phenyl]-N-[4-[hydroxy(6-methyl-1-oxidopyridin-2-yl)methyl]phenyl]-1-isobutyl-2,3-dihydro-1H-1-benzazepine-4-carboxamide]	114 to 116 °C
CCCCOCCOc1ccc(-c2ccc3c(c2)C=C(C(=O)Nc2ccc([C@H](O)c4cccc[n+]4[O-])cc2)CCN3CCC)cc1 [Compound 83, 7-[4-(2-butoxyethoxy)phenyl]-N-[4-[(S)-hydroxy(1-oxidopyridin-2-yl)methyl]phenyl]-1-propyl-2,3-dihydro-1H-1-benzazepine-4-carboxamide]	87 to 89 °C
CCCCOCCOc1ccc(-c2ccc3c(c2)C=C(C(=O)Nc2ccc([C@H](O)c4cccc[n+]4[O-])cc2)CCN3Cc2ccnn2C)cc1 [Compound 89, 7-[4-(2-butoxyethoxy)phenyl]-N-[4-[(S)-hydroxy(1-oxidopyridin-2-yl)methyl]phenyl]-1-(1-methylpyrazol-5-ylmethyl)-2,3-dihydro-1H-1-benzazepine-4-carboxamide]	109 to 111 °C
CCCCOCCOc1ccc(-c2ccc3c(c2)C=C(C(=O)Nc2ccc([S+]([O-])c4cccc5nccn45)cc2)CCN3CC(C)C)cc1 (stereo not shown) [Compound 169, 7-[4-(2-butoxyethoxy)phenyl]-1-isobutyl-N-[4-(imidazo[1,2-a]pyridin-5-ylsulfinyl)phenyl]-2,3-dihydro-1H-benzazepine-4-carboxamide]	162 to 164 °C
CCCCOCCOc1ccc(-c2ccc3c(c2)C=C(C(=O)Nc2ccc(C(O)c4cc(C)cc[n+]4[O-])c(OCC)c2)CCN3CC(C)C)cc1 (stereo not shown) [Compound 12, 7-[4-(2-butoxyethoxy)phenyl]-N-[3-ethoxy-4-[hydroxy(4-methyl-1-oxidopyridin-2-yl)methyl]phenyl]-1-isobutyl-2,3-dihydro-1H-1-benzazepine-4-carboxamide]	108 to 110 °C
CCCCOCCOc1ccc(-c2ccc3c(c2)C=C(C(=O)Nc2ccc([S+]([O-])Cc4c(C)nc5ccccn45)cc2)CCN3CCC)cc1 (stereo not shown) [Compound 165, 7-[4-(2-butoxyethoxy)phenyl]-N-[4-(2-methylimidazo[1,2-a]pyridin-3-ylmethylsulfinyl)phenyl]-1-propyl-2,3-dihydro-1H-benzazepine-4-carboxamide]	134 to 137 °C
CCCCOCCOc1ccc(-c2ccc3c(c2)C=C(C(=O)Nc2ccc(C(O)c4c(OCCC)ccc[n+]4[O-])cc2)CCN3C(=O)C(F)(F)F)cc1 (stereo not shown) [Compound 112, 7-[4-(2-butoxyethoxy)phenyl]-N-[4-[hydroxy(1-oxido-3-propoxypyridin-2-yl)methyl]phenyl]-1-trifluoroacetyl-2,3-dihydro-1H-1-benzazepine-4-carboxamide]	144 to 146 °C
CCCCOCCOc1ccc(-c2ccc3c(c2)C=C(C(=O)Nc2ccc(OCc4nccn4CCC)cc2)CCN3CC(C)C)cc1 [Compound 25, 7-[4-(2-butoxyethoxy)phenyl]-1-isobutyl-N-[4-[(1-propylimidazole-2-yl)methoxy]phenyl]-2,3-dihydro-1H-1-benzazepine-4-carboxamide]	118 to 120 °C
CCCCOCCOc1ccc(-c2ccc3c(c2)C=C(C(=O)Nc2ccc(CC(=O)c4nccn4CCC)cc2)CCN3CC(C)C)cc1 [Compound 451, 7-[4-(2-butoxyethoxy)phenyl]-1-isobutyl-N-[4-(2-oxo-2-(1-propylimidazol-2-yl)ethyl)phenyl]-2,3-dihydro-1H-1-benzazepine-4-carboxamide]	136.5 to 138 °C
CCCCOCCOc1ccc(-c2ccc3c(c2)C=C(C(=O)Nc2ccc([S+]([O-])Cc4nnc(SC)n4CCC)cc2)CCN3CC(C)C)cc1 (stereo not shown) [Compound 149, 7-[4-(2-butoxyethoxy)phenyl]-1-isobutyl-N-[4-(5-methylthio-4-propyl-4H-1,2,4-triazol-3-ylmethylsulfinyl)phenyl]-2,3-dihydro-1H-benzazepine-4-carboxamide]	150 to 152 °C
CCCCOCCOc1ccc(-c2ccc3c(c2)C=C(C(=O)Nc2ccc([S+]([O-])Cc4nccn4CCCC(=O)OCC)cc2)CCN3CC(C)C)cc1 (stereo not shown) [Compound 414, ethyl 4-[2-[[[4-[[[7-[4-(2-butoxyethoxy)phenyl]-1-isobutyl-2,3-dihydro-1H-1-benzazepine-4-yl]carbonyl]amino]phenyl]sulfinyl]methyl]-1H-imidazol-1-yl]butanoate]	134 to 136 °C
CCCCOCCOc1ccc(-c2ccc3c(c2)C=C(C(=O)Nc2ccc(N(C)Cc4nncn4CCC)cc2)CCN3CC(C)C)cc1 [Compound 150, 7-[4-(2-butoxyethoxy)phenyl]-1-isobutyl-N-[4-[methyl(4-propyl-4H-1,2,4-triazol-3-ylmethyl)amino]phenyl]-2,3-dihydro-1H-benzazepine-4-carboxamide]	134 to 136 °C
